pIC50: −log10 of the molar value.

As a reminder, the pIC50 is the IC50 on a negative log10 scale, so that one unit is a factor of ten.

For the assay, the target named is T1, human CCR1 (Homo sapiens, UniProt P32246).
T1 sequence (P32246 1-355): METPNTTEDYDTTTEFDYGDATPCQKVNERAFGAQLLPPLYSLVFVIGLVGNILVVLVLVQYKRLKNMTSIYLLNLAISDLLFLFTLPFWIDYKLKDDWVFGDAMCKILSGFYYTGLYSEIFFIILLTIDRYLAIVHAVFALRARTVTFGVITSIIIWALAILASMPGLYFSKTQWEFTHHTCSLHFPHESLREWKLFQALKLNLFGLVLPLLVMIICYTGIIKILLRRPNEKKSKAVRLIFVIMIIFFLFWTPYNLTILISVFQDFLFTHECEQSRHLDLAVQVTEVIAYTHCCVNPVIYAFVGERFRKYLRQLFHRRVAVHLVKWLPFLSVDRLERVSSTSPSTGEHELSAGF
As to the kind of experiment: CCR1 binding protocol (SPA, [125I]-MIP-1α displacement). As to conditions: cell membrane expressing human CCR1, 0.1 nM [125I]-MIP-1α, 4 hours at ambient temperature; read-out: Relative potency (IC50). The method in brief: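 Displacement of 0.1 nM [125I]-MIP-1α (final) from membranes expressing human CCR1 was measured by scintillation proximity after 4 h at ambient temperature. Conditions: pH 7.4 Tris buffer with 0.1% BSA and MnCl, and 0.5 μg membrane per well. Compounds were tested as a 10-step ½-log series from a 10 mM DMSO stock to derive IC50.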
Consider `N#C/N=C(\N[C@H]1CCOc2cc(C(F)(F)F)ccc21)N1CCC[C@@H]1c1nnc(CO)n1Cc1ccc(Cl)cc1` [Compound 373], for which the pIC50 is 6.30 to 7.30.

In the case of `Cc1nnc([C@H]2CCCN2C(=O)Nc2ccc(S(N)(=O)=O)cc2Cl)n1Cc1ccc(Cl)cc1` [Compound 486], the pIC50 was more than 7.30.

For the molecule `CCC(CC)NC(=O)N1CCC[C@@H]1c1nnc(C)n1Cc1ccc(Cl)cc1` [Compound 183], the pIC50 was 6.30 to 7.30.

Regarding `Cc1nnc([C@H]2CCCN2C(=O)Nc2ccc(C(C)C)cc2C(F)(F)F)n1Cc1ccc(Cl)cc1` [Compound 278], the pIC50 was more than 7.30.

Take `CC[C@H](NC(=O)N1CCC[C@@H]1c1nnc(C)n1Cc1ccc(Cl)cc1)c1cc2cc(C(F)(F)F)ccc2o1` [Compound 280]: the pIC50 was more than 7.30.

Regarding `Cc1cc(C(F)(F)F)cc(C)c1NC(=O)N1CCC[C@@H]1c1nnc(C(C)C)n1Cc1ccc(Cl)cc1` [Compound 118], the pIC50 is 6.30 to 7.30.

As to `Cc1nc(NC(=O)N2CCC[C@@H]2c2nnc(C)n2Cc2ccc(Cl)cc2)sc1C` [Compound 596], the pIC50 was 5.30 to 6.30.

For `Cc1cc(C)c(S(=O)(=O)N(C)C)cc1Nc1c(N2CCC[C@@H]2c2nnc(C)n2Cc2ccc(Cl)cc2)c(=O)c1=O` [Compound 609], the pIC50 is 6.30 to 7.30.

For the molecule `Cc1nnc([C@H]2CCCN2C(=O)Nc2cccnc2)n1Cc1ccc(Cl)cc1` [Compound 245], the pIC50 was 5.30 to 6.30.

Turning to `Cc1noc(-c2ccccc2)c1NC(=O)N1CCC[C@@H]1c1nnc(CO)n1Cc1ccc(Cl)cc1` [Compound 309], the pIC50 was more than 7.30.

As to `Cc1nnc([C@H]2C[C@@H](O)CN2C(=O)N[C@H]2CCOc3cc(C#N)ccc32)n1Cc1ccc(Cl)cc1` [Compound 522], the pIC50 is more than 7.30.

As for `Cc1nnc([C@H]2CCCN2C(=O)NC(c2ccccc2)c2ccccc2)n1Cc1ccc(Cl)cc1` [Compound 128], the pIC50 is more than 7.30.

Take `Cc1nnc([C@H]2CCCN2C(=O)N[C@H]2CCc3cc(C(F)(F)F)ccc32)n1Cc1ccc(Cl)cc1` [Compound 169]: the pIC50 was more than 7.30.

In the case of `Cc1onc(-c2ccccc2)c1N/C(=N/C#N)N1CCC[C@@H]1c1nnc(C)n1Cc1ccc(Cl)cc1` [Compound 222], the pIC50 is 6.30 to 7.30.

Regarding `Cc1nc(Cl)ncc1NC(=O)N1CCC[C@@H]1c1nnc(C)n1Cc1ccc(Cl)cc1` [Compound 350], the pIC50 was more than 7.30.

In the case of `CC[C@@H](NC(=O)N1CCC[C@@H]1c1nnc(C)n1Cc1ccc(Cl)cc1)c1ccc(C(F)(F)F)nc1` [Compound 458], the pIC50 was more than 7.30.

For `Cc1nnc([C@H]2CCCN2/C(=C/[N+](=O)[O-])Nc2ccc(Cl)cc2F)n1Cc1ccc(Cl)cc1` [Compound 613], the pIC50 was 6.30 to 7.30.

With `NCc1nnc([C@H]2CCCN2C(=O)N[C@H]2CCOc3cc(C(F)(F)F)ccc32)n1Cc1ccc(Cl)cc1` [Compound 414], the pIC50 is 6.30 to 7.30.

With `Cc1nnc([C@H]2CCCN2C(=O)Nc2cccc(Cl)c2)n1Cc1ccc(Cl)cc1` [Compound 163], the pIC50 was 6.30 to 7.30.

Consider `Cn1ncc(-c2ccccc2)c1NC(=O)N1CCC[C@@H]1c1ncnn1Cc1ccc(Cl)cc1` [Compound 69], for which the pIC50 was 6.30 to 7.30.

In the case of `Cn1ncc(Cc2ccc(Cl)cc2)c1[C@H]1CCCN1C(=O)Nc1ccc(C(F)(F)F)cc1` [Compound 11], the pIC50 is 5.30 to 6.30.

For the molecule `CC[C@H](N/C(=N/C#N)N1CCC[C@@H]1c1nnc(C)n1Cc1ccc(Cl)cc1)c1cc2ccccc2o1` [Compound 196], the pIC50 was more than 7.30.

For `Cc1cc(NC(=O)N2CCC[C@@H]2c2nccn2Cc2ccc(Cl)cc2)c(C(F)(F)F)o1` [Compound 45], the pIC50 was 5.30 to 6.30.

Consider `Cc1nnc([C@H]2CCCN2C(=O)Nc2ccc(C(F)(F)F)[n+]([O-])c2C)n1Cc1ccc(Cl)cc1` [Compound 519], for which the pIC50 was more than 7.30.

As for `Cc1nnc([C@H]2CCCN2c2c(N[C@H]3CCOc4cc(C(F)(F)F)ccc43)c(=O)c2=O)n1Cc1ccc(Cl)cc1` [Compound 530], the pIC50 is 6.30 to 7.30.

As to `O=C(N[C@@H]1CCCOc2ccc(Cl)cc21)N1CCC[C@@H]1c1nncn1Cc1ccc(Cl)cc1` [Compound 148], the pIC50 is 6.30 to 7.30.

Take `Cc1nc([C@H]2CCCN2C(=O)Nc2ccc(C(F)(F)F)cc2)n(Cc2ccc(Cl)cc2)n1` [Compound 92]: the pIC50 is 5.30 to 6.30.

As for `Cc1ncc(Cc2ccc(Cl)cc2)c([C@H]2CCCN2C(=O)Nc2c(C)cc(Cl)cc2C)n1` [Compound 18], the pIC50 is 6.30 to 7.30.

For the molecule `Cc1cc(Cl)cc(C)c1NC(=O)N1CCC[C@@H]1c1nccn1Cc1ccc(Cl)cc1` [Compound 33], the pIC50 is more than 7.30.

As for `Cc1nnc([C@H]2CCCN2C(=O)N[C@H]2COCc3c(F)cccc32)n1Cc1ccc(Cl)cc1` [Compound 138], the pIC50 is 6.30 to 7.30.

For the molecule `Cc1nnc([C@H]2CCCN2C(=O)N[C@H]2CCOc3cc(C(F)(F)F)ccc32)n1Cc1cccc(Cl)c1` [Compound 336], the pIC50 was 5.30 to 6.30.

Take `Cc1nnc([C@H]2C[C@@H](O)CN2C(=O)Nc2ccc(C(F)(F)F)cc2)n1Cc1ccc(Cl)cc1` [Compound 391]: the pIC50 is 5.30 to 6.30.

For `Cc1nnc([C@H]2CCCN2C(=O)N[C@H]2CCOc3c2cccc3C(F)(F)F)n1Cc1ccc(Cl)cc1` [Compound 199], the pIC50 was more than 7.30.

As for `Cc1c(NC(=O)N2CCC[C@@H]2c2nnc(C)n2Cc2ccc(Cl)cc2)ccc(C#N)c1Cl` [Compound 528], the pIC50 is more than 7.30.

With `Cc1nnc([C@H]2CCCN2C(=O)Cc2cc(C(F)(F)F)ccc2Cl)n1Cc1ccc(Cl)cc1` [Compound 511], the pIC50 was more than 7.30.

For the molecule `Cc1nnc([C@H]2C[C@@H](O)CN2C(=O)Nc2ccc(Cl)c(C(F)(F)F)c2)n1Cc1ccc(Cl)cc1` [Compound 446], the pIC50 was 6.30 to 7.30.

Turning to `Cc1noc(-c2ccccc2)c1NC(=O)N1CCC[C@@H]1c1nn(C)c(C)c1Cc1ccc(Cl)cc1` [Compound 9], the pIC50 was 5.30 to 6.30.

For the molecule `Cc1nnc([C@H]2CCCN2C(=O)NC2(c3ccccc3)CC2)n1[C@@H](C)c1ccc(Cl)cc1` [Compound 351], the pIC50 is 6.30 to 7.30.

Regarding `Cc1nc(Cl)nc(Cl)c1NC(=O)N1CCC[C@@H]1c1nnc(C)n1Cc1ccc(Cl)cc1` [Compound 188], the pIC50 is more than 7.30.

Regarding `CNC(=O)c1ccc(NC(=O)N2CCC[C@@H]2c2nnc(C)n2Cc2ccc(Cl)cc2)c(C)c1` [Compound 234], the pIC50 was 6.30 to 7.30.

On to `CC[C@H](NC(=O)N1CCC[C@@H]1c1nnc(C)n1Cc1ccc(Cl)cc1)c1ccc(C(F)(F)F)nc1` [Compound 467], for which the pIC50 was more than 7.30.

With `Cc1nnc([C@H]2CCCN2C(=O)Nc2c(Cl)ncnc2N(C)C)n1Cc1ccc(Cl)cc1` [Compound 182], the pIC50 is more than 7.30.

In the case of `Cc1noc(C)c1NC(=O)N1C[C@@H](O)C[C@@H]1c1nnc(C)n1Cc1ccc(Cl)cc1` [Compound 445], the pIC50 was 6.30 to 7.30.

In the case of `Cc1nnc([C@H]2C[C@@H](O)CN2C(=O)Nc2ccc(C(F)(F)F)nc2Cl)n1Cc1ccc(Cl)cc1` [Compound 494], the pIC50 is 6.30 to 7.30.

Take `Cc1nnc([C@H]2C[C@H](O)CN2C(=O)Nc2ccc(Cl)c(C(F)(F)F)c2)n1Cc1ccc(Cl)cc1` [Compound 437]: the pIC50 was more than 7.30.

On to `Cc1nc(Cl)ccc1NC(=O)N1CCC[C@@H]1c1nnc(C)n1Cc1ccc(Cl)cc1` [Compound 398], for which the pIC50 was more than 7.30.

As for `Cc1nnc([C@H]2CCCN2C(=O)NC(c2ccccc2)c2ccc(Cl)cc2)n1Cc1ccc(Cl)cc1` (stereo partly shown) [Compound 129], the pIC50 was more than 7.30.

Take `C[C@H](NC(=O)N1CCC[C@@H]1c1nnc(CO)n1Cc1ccc(Cl)cc1)c1ccc(Cl)cc1` [Compound 402]: the pIC50 is more than 7.30.

Regarding `Cc1noc(-c2ccccc2)c1NC(=O)N1CC(F)C[C@@H]1c1nnc(C)n1Cc1ccc(Cl)cc1` (stereo partly shown) [Compound 573], the pIC50 is more than 7.30.

For `CNC(=O)c1ccc(F)c(NC(=O)N2CCC[C@@H]2c2nnc(C)n2Cc2ccc(Cl)cc2)c1` [Compound 301], the pIC50 was 6.30 to 7.30.

For the molecule `Cc1nnc([C@H]2CCCN2C(=O)Nc2ccc(C(F)(F)F)cn2)n1Cc1ccc(Cl)cc1` [Compound 277], the pIC50 was 6.30 to 7.30.

Turning to `Cc1noc(C)c1NC(=O)N1CCC[C@@H]1c1noc(C)c1Cc1ccc(Cl)cc1` [Compound 7], the pIC50 is 6.30 to 7.30.

In the case of `Cc1nnc([C@H]2CCCN2C(=O)Nc2cc(C(N)=O)ccc2Cl)n1Cc1ccc(Cl)cc1` [Compound 332], the pIC50 is 6.30 to 7.30.

Turning to `Cc1nnc([C@H]2CCCN2C(=O)Nc2cc(Cl)ccc2F)n1Cc1ccc(Cl)cc1` [Compound 419], the pIC50 is 6.30 to 7.30.

With `CC[C@H](NC(=O)N1CCC[C@@H]1c1nnc(C)n1Cc1ccc(Cl)cc1)c1cc2ccccc2o1` [Compound 117], the pIC50 is more than 7.30.

As to `Cc1nnc([C@H]2C[C@H](O)CN2C(=O)N[C@H]2CCOc3cc(C(F)(F)F)ccc32)n1Cc1ccc(Cl)cc1` [Compound 432], the pIC50 is more than 7.30.

Regarding `Cc1noc(C)c1CC(=O)N1C[C@@H](O)C[C@@H]1c1nnc(C)n1Cc1ccc(Cl)cc1` [Compound 630], the pIC50 was 6.30 to 7.30.

Turning to `Cc1cc(C(=O)N(C)C)ccc1NC(=O)N1CCC[C@@H]1c1nnc(C)n1Cc1ccc(Cl)cc1` [Compound 236], the pIC50 is 6.30 to 7.30.

Consider `Cc1nnc([C@H]2CCCN2C(=O)Nc2ccc(Br)cc2)n1Cc1ccc(Cl)cc1` [Compound 162], for which the pIC50 was 6.30 to 7.30.

As for `Cc1nnc([C@H]2CCCN2C(=O)N[C@H]2CCOc3ccc(F)cc32)n1Cc1ccc(Cl)cc1` [Compound 157], the pIC50 is 6.30 to 7.30.

For the molecule `Cc1ncnc([C@H]2CCCN2C(=O)NC2(c3ccccc3)CC2)c1Cc1ccc(Cl)cc1` [Compound 26], the pIC50 was 6.30 to 7.30.

The values are drawn from patent US8288371B2, “Ortho pyrrolidine, benzyl-substituted heterocycle CCR1 antagonists for autoimmune diseases and inflammation” (Pharmacopeia, LLC, priority 2007, dated 2012).
